Assay results published in paper PMC8398472, “Anticancer Diiron Vinyliminium Complexes: A Structure–Activity Relationship Study” (Pharmaceutics, 2021).
Several values for one entry are separate records, joined by “and”; a condition that tells them apart may be missing. Equal entries are not always repeated. Where two headings read alike, the source gives them in different places.

How the values were obtained:
[1] = cited from earlier work; for Log Pow: previously determined
[2] = tested on: human ovarian carcinoma cisplatin-sensitive A2780; parameters: method as in PMID 31441186; settings: previously determined on the same cell line; cited from earlier work
[3] = tested on: mouse embryo fibroblasts Balb/3T3 clone A31; assay: Cytotoxicity, WST-1 cell viability assay, Balb/3T3 clone A31; assay type: cell-based; settings: 72 h exposure
Protocol: (§1) In vitro cytotoxicity investigations were carried out by using human ovarian carcinoma cisplatin-sensitive A2780 (ECACC93112519), human ovarian carcinoma cisplatin-resistant A2780cisR (ECACC 93112517) and mouse embryo fibroblasts Balb/3T3 clone A31 (ATCC CCL-163) cell lines. A2780 and A2780cisR were purchased from the European Collection of Authenticated Cell Cultures (ECACC), and Balb/3T3 clone A31 cell line from the American Type Culture Collection (ATCC).
(§2) A2780 and A2780cisR cells were routinely cultured in RPMI 1640 (Merck) containing 2 mM of L-glutamine (Merck), 1% of penicillin/streptomycin solution (Merck—10 000 U mL^−1: 10 mg mL^−1), 10% of fetal bovine serum (Merck—FBS) and antimycotic (InvivoGen, USA), and Balb/3T3 clone A31 in Dulbecco’s modified Eagle medium (Merck—DMEM) supplemented with 4 mM of L-glutamine, 1% of penicillin/streptomycin solution, 10% of calf serum (Merck) and antimycotic. […] The cultures were maintained at 37 °C and in a 5% CO2-enriched atmosphere.
(§3) A2780, A2780cisR and Balb/3T3 clone A31 cells were seeded in 96-well tissue culture polystyrene plates at a concentration of 3 × 10^3, 6 × 10^3 and 1 × 10^3 cells per well, respectively. After overnight incubation, the cells were treated with different concentrations (0–100 µM) of the selected compounds for 72 h at 37 °C in a 5% atmosphere of CO2. Stock solutions of compounds were prepared in DMSO and sequentially diluted in medium (final DMSO concentration of 0.5%). […] At the end of the incubation time, cell viability was assessed by means of WST-1 tetrazolium salt reagent (Roche). Briefly, cells were incubated for 4 h with the tetrazolium salt reagent diluted 1:10, at 37 °C and 5% CO2. Measurements of formazan dye absorbance, which directly correlates with the number of viable cells, were carried out with a micro-plate reader (Biorad) at 450 nm, using 655 nm as reference wavelength. The 50% inhibitory concentration (IC50) refers to compound concentration at which 50% of cell death is observed with respect to the control. For each tested compound, assay was performed on triplicate. The concentration effect curves were generated by nonlinear regression curves (GraphPad Prism Software, 2021) and the data reported as mean ± standard deviation.

[4] = tested on: human ovarian carcinoma cisplatin-sensitive A2780; assay: Cytotoxicity, WST-1 cell viability assay, A2780; assay type: cell-based; settings: for IC50: 72 h exposure; for Selectivity index (S.I.): ratio between IC50 for Balb/3T3 and IC50 for A2780
Protocol: as §1, §2, §3

[5] = tested on: human ovarian carcinoma cisplatin-resistant A2780cisR; assay: Cytotoxicity, WST-1 cell viability assay, A2780cisR; assay type: cell-based; settings: 72 h exposure
Protocol: as §1, §2, §3

[6] = Octanol–water partition coefficient (shake-flask, UV–Vis); assay type: physicochemical; settings: 21 °C
Protocol: • (c) Octanol–water partition coefficients (Log Pow). Partition coefficients (Pow; IUPAC: KD partition constant), defined as Pow = corg/caq, where corg and caq are molar concentrations of the selected compound in the organic and aqueous phase, respectively, were determined by the shake-flask method and UV–Vis measurements. Deionized water and 1-octanol were vigorously stirred for 24 h to enable saturation of both phases, then separated by centrifugation. A stock solution of the selected diiron compound (ca. 2 mg; 2a–c, 3b, 4a–c, 5a, 5c, 6b,c, 7) was prepared by first adding acetone (50 μL, to help solubilization), followed by water-saturated octanol (2.5 mL). The solution was diluted with water-saturated octanol (ca. 1:3 v/v ratio, cFe2 ≈ 10^−4 M, so that 1.5 ≤ A ≤ 2.0 at λmax) and the UV–Vis spectrum was recorded (A^0org). An aliquot of the solution (Vorg = 1.2 mL) was transferred into a test tube and octanol-saturated water (Vorg = Vaq = 1.2 mL) was added. The mixture was vigorously stirred for 15 min at 21 °C and then centrifuged (5000 rpm, 10 min). The UV–Vis spectrum of the organic phase was recorded (A^forg) and the partition coefficient was calculated as Pow = A^forg/(A^0org − A^forg), where A^0org and A^forg are the absorbance in the organic phase before and after partition with the aqueous phase, respectively. An inverse procedure was followed for 3a, 3c, 5b and 6a, starting from a solution of the compound in octanol-saturated water. The partition coefficient was calculated as Pow = (A^0aq − A^faq)/A^faq where A^0aq and A^faq are the absorbance in the aqueous phase before and after partition with the organic phase, respectively. The wavelength of the maximum absorption of each compound (ca. 300 nm) was used for UV–Vis quantitation. The procedure was repeated three times for each sample (from the same stock solution); results are given as mean ± standard deviation.

[7] = Solubility in D2O by 1H NMR (Me2SO2 internal standard); assay type: physicochemical; settings: for Solubility: 21 °C
Protocol: (§4) • (a) Solubility in D2O. A suspension of the selected diiron compound (3–5 mg) in a D2O solution (ca. 1 mL) containing Me2SO2 (3.36 × 10^−3 M) as internal standard was vigorously stirred at 21 °C for 1.5 h. The resulting saturated solution was filtered over celite, transferred into an NMR tube and then analyzed by ^1H NMR spectroscopy (delay time = 3 s; number of scans = 20). The concentration (solubility) was calculated by the relative integral (related to Cp and/or NMe signals) with respect to Me2SO2 (δ = 3.14 ppm). • (b) Stability in DMSO-d6/D2O solution. The selected diiron compound (ca. 4 mg) was added of 1 mL of D2O (3a,c) or DMSO-d6/D2O (2:1 v/v) mixture (2a,c, 3b, 4a–c, 5a–c, 6a–c, 7), containing Me2SO2 (3.36 × 10^−3 M). The resulting mixture was stirred for 30 min and then filtered over celite; the filtrated solution was transferred into an NMR tube. The sample was analyzed by ^1H NMR (time = 0) and then heated at 37 °C for 72 h. After cooling to room temperature, the solution was separated from a small amount of solid by filtration over celite, and the new ^1H NMR spectrum was recorded (delay time = 3 s; number of scans = 20). In every case, no newly formed organometallic species was detected. The amount of starting material in solution (% with respect to the initial spectrum) was calculated by the relative integral (vs. Cp and/or NMe signals) with respect to Me2SO2 as internal standard.

[8] = Stability in DMSO-d6/D2O or D2O solution at 37 °C for 72 h (1H NMR); assay type: physicochemical; settings: 72 h at 37 °C
Protocol: as §4

Log Pow [6] | Solubility [7] | Stability % (residual % of starting material) ([8]; DMSO-d6/D2O (2:1 v/v)) | Compound | IC50 [3] | IC50 [4] | Selectivity index (S.I.) [4] | other results
0.13 ± 0.01 | 1.10 × 10^−3 mol·L^−1 and 0.73 g·L^−1 | 84% | [Fe2Cp2(CO)(μ-CO){μ-η^1:η^3-C^3(Et)C^2(Et)C^1NMe(CH2Ph)}]CF3SO3 [Compound 5c] | 90 ± 8 µM | 3.75 ± 0.14 µM | 24 | –
−0.77 ± 0.01 | 6.89 × 10^−3 mol·L^−1 and 4.02 g·L^−1 | – | [Fe2Cp2(CO)(μ-CO){μ-η^1:η^3-C^3(Me)C^2(Me)C^1NMe(CH2CH = CH2)}]CF3SO3 [Compound 3c] | > 100 µM | ~17 µM and 17 µM | >5.9 | Stability % (residual % of starting material) ([8]; neat D2O): 85 ^a %
0.45 ± 0.04 | – | 81% | [Fe2Cp2(CO)(μ-CO){μ-η^1:η^3-C^3(Me)C^2HC^1N(CH2Ph)2}]CF3SO3 [Compound 2a] | 14 ± 4 µM | 2 ± 0.7 µM | 7 | –
−0.46 ± 0.01 | 2.22 × 10^−3 mol·L^−1 and 1.41 g·L^−1 | 94% | [Fe2Cp2(CO)(μ-CO){μ-η^1:η^3-C^3(Me)C^2HC^1NMe(4-C6H4OMe)}]CF3SO3 [Compound 6a] | 94 ± 4 µM | 3.5 ± 0.5 µM | 27 | –
−0.75 ± 0.01 | 6.43 × 10^−3 mol·L^−1 and 3.66 g·L^−1 | – | [Fe2Cp2(CO)(μ-CO){μ-η^1:η^3-C^3(Me)C^2HC^1NMe(CH2CH = CH2)}]CF3SO3 [Compound 3a] | > 100 µM | 17.7 ± 0.8 µM | >5.6 | Stability % (residual % of starting material) ([8]; neat D2O): 93 ^a %
−0.26 ± 0.01 | – | 85% | [Fe2Cp2(CO)(μ-CO){μ-η^1:η^3-C^3(Me)C^2HC^1NMe(CH2Ph)}]CF3SO3 [Compound 5a] | > 100 µM | 7.1 ± 0.4 µM | >14 | –
1.4 and 1.4 ± 0.2 | – | – | [Fe2Cp2(CO)(μ-CO){μ-η^1:η^3-C^3(Ph)C^2HC^1N(CH2Ph)2}]CF3SO3 [Compound 2b] | – | – | – | Solubility in D2O (in words) [7]: almost insoluble in D2O
0.41 ± 0.02 | 1.52 × 10^−3 mol·L^−1 and 1.02 g·L^−1 | 65% | [Fe2Cp2(CO)(μ-CO){μ-η^1:η^3-C^3(Ph)C^2HC^1NMe(Cy)}]CF3SO3 [Compound 4b] | 35 ± 3 µM | 2.6 ± 0.3 µM | 13 | –

Continued, compound first:

Compound | Log Pow [6] | Solubility [7] | Stability % (residual % of starting material) ([8]; DMSO-d6/D2O (2:1 v/v)) | IC50 [3] | IC50 [4] | Selectivity index (S.I.) [4] | other results
O=C1C=CC(=O)c2ccccc21 [Naphthoquinone] | – | – | – | – | – | – | Log P ([1]; literature value): 1.71
CC1=[C](C)[Fe+]2(=[C]=O)[C](=O)[Fe+]2[C]1=[N+](C)c1c(C)cccc1C.O=S(=O)([O-])C(F)(F)F.c1cc[cH-]c1.c1cc[cH-]c1 (stereo not shown) [[Fe2Cp2(CO)(μ-CO){μ-η^1:η^3-C^3(Me)C^2(Me)C^1NMe(Xyl)}]CF3SO3] | – | – | – | – | – | – | Log Pow [1]: 0.0; IC50 [2]: 0.5 ± 0.06 µM
Cc1cccc(C)c1[N+](C)=[C]1C=[C](c2ccccc2)[Fe+]2(=[C]=O)[C](=O)[Fe+]12.O=S(=O)([O-])C(F)(F)F.c1cc[cH-]c1.c1cc[cH-]c1 (stereo not shown) [[Fe2Cp2(CO)(μ-CO){μ-η^1:η^3-C^3(Ph)C^2HC^1NMe(Xyl)}]CF3SO3] | – | – | – | – | – | – | Log Pow [1]: 0.4; IC50 [2]: 0.9 ± 0.06 µM
N.N.[Cl][Pt][Cl] [cisplatin, reference compound] | – | – | – | 0.8 ± 0.2 µM | 0.4 ± 0.07 µM | – | IC50 [5]: 26 ± 3 µM
[Fe2Cp2(CO)(μ-CO){μ-η^1:η^3-C^3(Me)C^2HC^1NMe2}]CF3SO3 | – | – | – | – | – | – | Log Pow [1]: −0.3; IC50 [2]: 35 ± 3 µM
